The NIST ThermoML archive (doi:10.1021/je700260f)
Several values for one entry are separate records, joined by “and”; a condition that tells them apart may be missing. Equal entries are not always repeated.

Conditions: 283.15 K, Liquid, Vibrating tube method

FC(C(F)(F)F)C(F)(F)F [1,1,1,2,3,3,3-heptafluoropropane]
Conditions	mass density
25072 kPa	1552.4 kg/m3
25508 kPa	1553.7 kg/m3
25593 kPa	1553.9 kg/m3
25630 kPa	1554.1 kg/m3
25722 kPa	1554.3 kg/m3
25865 kPa	1554.8 kg/m3
25945 kPa	1555.1 kg/m3
25993 kPa	1555.1 kg/m3
26030 kPa	1555.3 kg/m3
26068 kPa	1555.4 kg/m3
26113 kPa	1555.4 kg/m3
26152 kPa	1555.7 kg/m3
26191 kPa	1555.8 kg/m3
26249 kPa	1555.9 kg/m3
26283 kPa	1556 kg/m3
26327 kPa	1556.3 kg/m3
26367 kPa	1556.3 kg/m3
26406 kPa	1556.2 kg/m3
26446 kPa	1556.3 kg/m3
26479 kPa	1556.8 kg/m3
26519 kPa	1556.7 kg/m3
26559 kPa	1556.8 kg/m3
26599 kPa	1557 kg/m3
26650 kPa	1557.1 kg/m3
26683 kPa	1557.3 kg/m3
26723 kPa	1557.3 kg/m3
26757 kPa	1557.3 kg/m3
26796 kPa	1557.5 kg/m3
26886 kPa	1557.8 kg/m3
26921 kPa	1557.9 kg/m3
26968 kPa	1558.1 kg/m3
27001 kPa	1558.1 kg/m3
27029 kPa	1558.2 kg/m3
27058 kPa	1558.3 kg/m3
27082 kPa	1558.3 kg/m3
27131 kPa	1558.5 kg/m3
27170 kPa	1558.7 kg/m3
27199 kPa	1558.8 kg/m3
27228 kPa	1558.8 kg/m3
27271 kPa	1558.9 kg/m3
27533 kPa	1559.8 kg/m3
27563 kPa	1559.9 kg/m3
27596 kPa	1559.8 kg/m3
27629 kPa	1560 kg/m3
27673 kPa	1560 kg/m3
27710 kPa	1560.2 kg/m3
27743 kPa	1560.2 kg/m3
27816 kPa	1560.5 kg/m3
27850 kPa	1560.7 kg/m3
27880 kPa	1560.8 kg/m3
27914 kPa	1560.8 kg/m3
27940 kPa	1560.9 kg/m3
27979 kPa	1561 kg/m3
28024 kPa	1561.2 kg/m3
28058 kPa	1561.1 kg/m3
28091 kPa	1561.4 kg/m3
28124 kPa	1561.5 kg/m3
28168 kPa	1561.6 kg/m3
28466 kPa	1562.5 kg/m3
28514 kPa	1562.7 kg/m3
28558 kPa	1562.7 kg/m3
28591 kPa	1562.8 kg/m3
28620 kPa	1562.8 kg/m3
28657 kPa	1562.9 kg/m3
28690 kPa	1563.1 kg/m3
28727 kPa	1563.2 kg/m3
28761 kPa	1563.3 kg/m3
28795 kPa	1563.4 kg/m3
28837 kPa	1563.6 kg/m3
28875 kPa	1563.5 kg/m3
29088 kPa	1564.2 kg/m3
29357 kPa	1565 kg/m3
29424 kPa	1565.2 kg/m3
29452 kPa	1565.2 kg/m3
29578 kPa	1565.7 kg/m3
29617 kPa	1565.6 kg/m3
29646 kPa	1565.8 kg/m3
29684 kPa	1565.9 kg/m3
29712 kPa	1565.9 kg/m3
29745 kPa	1566.1 kg/m3
29784 kPa	1566.2 kg/m3
29814 kPa	1566.3 kg/m3
29853 kPa	1566.4 kg/m3
29877 kPa	1566.5 kg/m3
29911 kPa	1566.5 kg/m3
29944 kPa	1566.6 kg/m3
29974 kPa	1566.7 kg/m3
30021 kPa	1566.8 kg/m3
30050 kPa	1567 kg/m3
30079 kPa	1567 kg/m3
30151 kPa	1567.2 kg/m3
30190 kPa	1567.4 kg/m3
30219 kPa	1567.5 kg/m3
30259 kPa	1567.4 kg/m3
30288 kPa	1567.5 kg/m3
30323 kPa	1567.7 kg/m3
30361 kPa	1567.8 kg/m3
30390 kPa	1567.7 kg/m3
30425 kPa	1567.9 kg/m3
30460 kPa	1567.9 kg/m3
30499 kPa	1568.2 kg/m3
30529 kPa	1568.3 kg/m3
30560 kPa	1568.3 kg/m3
30595 kPa	1568.5 kg/m3
30635 kPa	1568.6 kg/m3
30666 kPa	1568.6 kg/m3
30696 kPa	1568.7 kg/m3
30743 kPa	1568.9 kg/m3
30783 kPa	1569 kg/m3
30830 kPa	1569.1 kg/m3
30861 kPa	1569.2 kg/m3
30897 kPa	1569.2 kg/m3
30937 kPa	1569.4 kg/m3
30968 kPa	1569.5 kg/m3
30999 kPa	1569.5 kg/m3
31030 kPa	1569.6 kg/m3
31065 kPa	1569.7 kg/m3
31105 kPa	1569.9 kg/m3
31140 kPa	1569.9 kg/m3
31187 kPa	1570 kg/m3
31230 kPa	1570.2 kg/m3
31267 kPa	1570.2 kg/m3
31308 kPa	1570.4 kg/m3
31350 kPa	1570.6 kg/m3
31392 kPa	1570.6 kg/m3
31429 kPa	1570.7 kg/m3
31511 kPa	1570.9 kg/m3
31547 kPa	1571.1 kg/m3
31588 kPa	1571.2 kg/m3
31620 kPa	1571.3 kg/m3
31657 kPa	1571.3 kg/m3
31697 kPa	1571.5 kg/m3
31750 kPa	1571.7 kg/m3
31782 kPa	1571.7 kg/m3
31819 kPa	1571.7 kg/m3
31855 kPa	1571.9 kg/m3
31897 kPa	1572 kg/m3
32027 kPa	1572.4 kg/m3
32095 kPa	1572.5 kg/m3
32132 kPa	1572.7 kg/m3
32164 kPa	1572.9 kg/m3
32391 kPa	1573.4 kg/m3
32884 kPa	1574.5 kg/m3
32921 kPa	1574.8 kg/m3
32959 kPa	1574.9 kg/m3
33280 kPa	1575.7 kg/m3
33348 kPa	1575.9 kg/m3
33384 kPa	1576 kg/m3
33426 kPa	1576 kg/m3
33457 kPa	1576.2 kg/m3
33499 kPa	1576.3 kg/m3
33535 kPa	1576.4 kg/m3
33572 kPa	1576.5 kg/m3
33609 kPa	1576.6 kg/m3
33661 kPa	1576.7 kg/m3
33688 kPa	1576.8 kg/m3
33731 kPa	1576.9 kg/m3
33762 kPa	1576.9 kg/m3
33793 kPa	1577.1 kg/m3
33830 kPa	1577.3 kg/m3
33873 kPa	1577.3 kg/m3
33910 kPa	1577.4 kg/m3
33948 kPa	1577.5 kg/m3
33984 kPa	1577.6 kg/m3
34026 kPa	1577.7 kg/m3
34068 kPa	1577.8 kg/m3
34110 kPa	1577.9 kg/m3
34148 kPa	1577.9 kg/m3
34186 kPa	1578.2 kg/m3
34224 kPa	1578.1 kg/m3
34267 kPa	1578.2 kg/m3
34310 kPa	1578.5 kg/m3
34350 kPa	1578.6 kg/m3
34387 kPa	1578.6 kg/m3
34414 kPa	1578.7 kg/m3
34442 kPa	1578.8 kg/m3
34456 kPa	1578.8 kg/m3
34470 kPa	1578.8 kg/m3
34478 kPa	1578.9 kg/m3
34486 kPa	1578.9 kg/m3
34492 kPa	1579.1 kg/m3
34498 kPa	1579 kg/m3
34504 kPa	1578.9 kg/m3
34505 kPa	1578.9 kg/m3
34506 kPa	1579 kg/m3
34508 kPa	1579 kg/m3
34509 kPa	1579 kg/m3
34511 kPa	1579 kg/m3 and 1579.2 kg/m3
34512 kPa	1579 kg/m3 and 1579.1 kg/m3
34513 kPa	1579.1 kg/m3
34514 kPa	1579.2 kg/m3
34515 kPa	1579 kg/m3 and 1578.9 kg/m3
34516 kPa	1579.1 kg/m3
34517 kPa	1579 kg/m3
34518 kPa	1579 kg/m3
34519 kPa	1578.9 kg/m3 and 1579 kg/m3 and 1579.1 kg/m3
34520 kPa	1578.9 kg/m3 and 1579.1 kg/m3
34521 kPa	1579 kg/m3 and 1578.9 kg/m3
34522 kPa	1579 kg/m3
34523 kPa	1579.1 kg/m3 and 1579 kg/m3
34524 kPa	1579.1 kg/m3 and 1579 kg/m3
34525 kPa	1579 kg/m3 and 1578.9 kg/m3
34526 kPa	1579.1 kg/m3
34527 kPa	1579 kg/m3
34528 kPa	1579.1 kg/m3
